Tested on: NF-κB signaling pathway
Test: Immunoblots of NF-κB signaling pathway molecules in LPS-treated MPAEpiC cells
Format: cell-based, mouse
Conditions: LPS 200 ng/mL + PNSC928 0, 23.6, and 47.2 µM, 6 h
Method: For LPS treatment, different knockdown (KD) cell lines—Control^KD, CtBP2^KD, p300^KD, and p65^KD, all derived from MPAEpiC—were seeded in 12-well plates and cultured at 37 °C until reaching 80% confluence. The cells were then treated with 200 ng/mL of LPS for 6 h, washed three times with PBS, and subjected to the required experiments. For experiments involving inhibitors of CtBP2, p300, and NF-κB, as well as the compound PNSC928, MPAEpiC, RAW264.7, FL83B, TKPTS, and HL-1 cells were seeded in 12-well plates and cultured at 37 °C to reach 80% confluence. Cells were then cotreated with 200 ng/mL LPS along with varying concentrations of the following chemicals: MTOB (0, 5, 10, or 20 mM), NSC95397 (0, 10, 20, or 40 µM), C646 (0, 3, 6, or 12 µM), A-485 (0, 5, 10, or 20 nM), TPCA1 (0, 150, 300, or 600 nM), BOT64 (0, 1, 2, or 4 µM), or PNSC928 (0, 11.8, 23.6, or 47.2 µM). After 6 h of treatment, cells were washed three times with PBS before proceeding with further experiments.
Cellular and mouse lung tissue lysates were prepared using the RIPA buffer (Thermo Fisher; #PI89900) supplemented with 1 × complete protease inhibitor cocktail (Thermo Fisher; #87,785). Following a 10-minute centrifugation at 13,000 g, proteins (50 µg) from the cleared lysate were resolved via 10% SDS-PAGE. These separated proteins were electroblotted onto PVDF membranes (Thermo Fisher; #88,585). […]

For CC(=CCCC1=CCC(C2COC(=O)C2)OC1O)CCC1=C(C)CCCC1(C)C (stereo not shown) [PNSC928], the “Effect on LPS-induced pIKKα, pIκBα, IκBα levels and nuclear translocation of p65 and p50” value was “did not alter the effects of LPS”.

— publication PMC11191317, “PNSC928, a plant-derived compound, specifically disrupts CtBP2-p300 interaction and reduces inflammation in mice with acute respiratory distress syndrome” (Biology Direct, 2024)
